Calls of active or inactive are those of the source. The rule behind the calls is not given here.
Key:
[1] = test system: STF/293; assay: Activation of TCF/beta-catenin transcription in human STF/293 cells assessed as increase in TOP activity by luciferase reporter gene assay; type: cell-based
[2] = test system: HEK293; assay: Activation of gene transcription in HEK293 cells assessed as increase in FOP at 10 to 30 uM activity by luciferase reporter gene assay; type: functional, cell-based; settings: Homo sapiens
[3] = test system: HEK293; assay: Cytotoxicity against STF reporter expressing HEK293 cells at 10 to 30 uM after 24 hrs by fluorescein diacetate dye based fluorescence assay; type: cell-based; settings: human, hek293, 24 h
[4] = Activation of Proto-oncogene protein Wnt/beta-catenin pathway in human STF/293 cells assessed as increase in cytosolic beta-catenin expression at 5 to 20 uM after 24 hrs; type: cell-based
[5] = Activation of Proto-oncogene protein Wnt/beta-catenin pathway in human STF/293 cells assessed as increase in nuclear beta-catenin expression at 5 to 20 uM after 24 hrs; type: cell-based
[6] = molecular target: Casein kinase I isoform alpha (Homo sapiens) (UniProt P48729); assay: Inhibition of CK1alpha in human STF/293 cells assessed as reduction in beta-catenin Ser33 phosphorylation at 5 to 20 uM after 24 hrs; type: cell-based
Sequence of Casein kinase I isoform alpha (Homo sapiens) (P48729 2-337 limits assumed): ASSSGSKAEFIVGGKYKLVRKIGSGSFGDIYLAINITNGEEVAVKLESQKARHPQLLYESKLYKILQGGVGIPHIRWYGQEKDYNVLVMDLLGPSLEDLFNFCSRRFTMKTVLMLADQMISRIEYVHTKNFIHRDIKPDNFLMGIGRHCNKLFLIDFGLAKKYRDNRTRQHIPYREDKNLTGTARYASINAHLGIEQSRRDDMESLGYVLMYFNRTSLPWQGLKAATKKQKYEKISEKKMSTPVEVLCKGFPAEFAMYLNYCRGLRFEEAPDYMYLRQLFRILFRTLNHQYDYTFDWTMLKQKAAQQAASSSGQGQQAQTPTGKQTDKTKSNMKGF

[7] = molecular target: Casein kinase I isoform alpha (Homo sapiens) (UniProt P48729); assay: Inhibition of CK1alpha in human STF/293 cells assessed as reduction in beta-catenin Ser37 phosphorylation at 5 to 20 uM after 24 hrs; type: cell-based
[8] = molecular target: Casein kinase I isoform alpha (Homo sapiens) (UniProt P48729); assay: Inhibition of CK1alpha in human STF/293 cells assessed as reduction in beta-catenin Ser45 phosphorylation at 5 to 20 uM after 24 hrs; type: cell-based
[9] = molecular target: Casein kinase I isoform alpha (Homo sapiens) (UniProt P48729); assay: Inhibition of CK1alpha in human STF/293 cells assessed as reduction in beta-catenin Thr41 phosphorylation at 5 to 20 uM after 24 hrs; type: cell-based
[10] = test system: HEK293; assay: Effect on GSK3beta expression in STF reporter expressing HEK293 cells at 5 to 20 uM after 24 hrs; type: functional, cell-based; settings: Homo sapiens
[11] = test system: HEK293; assay: Effect on CK1alpha expression in STF reporter expressing HEK293 cells at 5 to 20 uM after 24 hrs; type: functional, cell-based; settings: Homo sapiens
[12] = molecular target: Casein kinase I isoform alpha (Homo sapiens) (UniProt P48729); assay: Inhibition of CK1alpha in human STF/293 cells assessed as reduction in beta-catenin Ser45 phosphorylation at 20 uM in presence of 200 nM CK1alpha activator pyrvinium after 24 hrs; type: cell-based
[13] = molecular target: Casein kinase I isoform alpha (Homo sapiens) (UniProt P48729); assay: Inhibition of CK1alpha in human STF/293 cells assessed as reduction in beta-catenin Ser33/Ser37/Thr41 phosphorylation at 20 uM in presence of 200 nM CK1alpha activator pyrvinium after 24 hrs; type: cell-based
[14] = Activation of Proto-oncogene protein Wnt/beta-catenin pathway in human STF/293 cells assessed as increase in beta-catenin expression at 20 uM in presence of 200 nM CK1alpha activator pyrvinium after 24 hrs; type: cell-based
[15] = Activation of Proto-oncogene protein Wnt/beta-catenin pathway in zebra fish assessed as increase in beta-catenin expression at 100 to 300 uM treated from 1.75 hrs post fertilization to 24 hrs post fertilization; settings: Danio rerio

## CC[C@H](CC[C@@H](C)[C@H]1CC[C@H]2[C@@H]3C(=O)C=C4C[C@@H](O)CC[C@]4(C)[C@H]3CC[C@]12C)C(C)C
[1]
  Activity: Dose-dependent effect
[2]
  Activity: inactive
[3]
  Activity: Non-toxic

## CC[C@H](CC[C@@H](C)[C@H]1CC[C@H]2[C@@H]3CC=C4C[C@@H](O[C@@H]5O[C@H](CO)[C@@H](O)[C@H](O)[C@H]5O)CC[C@]4(C)[C@H]3CC[C@]12C)C(C)C [SITOGLUSIDE]
[1]
  Activity: Dose-dependent effect
[3]
  Activity: Non-toxic

## C=C(C)[C@@H]1CC[C@]2(C)CC[C@]3(C)[C@H](CC[C@@H]4[C@@]5(C)CC[C@H](O)C(C)(C)[C@@H]5CC[C@]43C)[C@@H]12 [LUPEOL]
[1]
  Activity: Dose-dependent effect
[3]
  Activity: Non-toxic

## COc1ccn(C)c(=O)c1C#N [RICININE]
[1]
  Activity: Dose-dependent effect
[2]
  Activity: inactive
[3]
  Activity: Non-toxic
[4]
  Activity: Active
[5]
  Activity: Active
[6]
  inhibition: Active
[7]
  inhibition: Active
[8]
  inhibition: Active
[9]
  inhibition: Active
[10]
  Activity: inactive
[11]
  Activity: inactive
[12]
  inhibition: Active
[13]
  inhibition: Active
[14]
  Activity: Active
[15]
  Activity: Dose-dependent effect
